Measurements as given in PubChem BioAssay (NCI).
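1) Cells in 96-well plates. 2) Compound, 48 h, 5 concentrations. 3) Linear interpolation between surrounding doses. 4) Unreached endpoint = highest concentration. GI50 = concentration required for 50% inhibition of growth. TGI denotes the concentration required for complete inhibition of growth.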

Columns and labels:
Test in all cases: growth of human tumour cells (NCI), 48 h
ACHN renal = system: ACHN renal
BT-549 breast = system: BT-549 breast
HCT-15 colon = system: HCT-15 colon
LOX IMVI melanoma = system: LOX IMVI melanoma
MCF7 breast = system: MCF7 breast
MDA-MB-435 = system: MDA-MB-435
MDA-N = system: MDA-N
OVCAR-3 ovarian = system: OVCAR-3 ovarian
SF-295 CNS = system: SF-295 CNS
SK-OV-3 ovarian = system: SK-OV-3 ovarian
HOP-92 NSCLC = system: HOP-92 NSCLC

SMILES	TGI (ACHN renal)	TGI (BT-549 breast)	TGI (HCT-15 colon)	TGI (LOX IMVI melanoma)	TGI (MCF7 breast)	TGI (MDA-MB-435)	TGI (MDA-N)	TGI (OVCAR-3 ovarian)	TGI (SF-295 CNS)	TGI (SK-OV-3 ovarian)	GI50 (ACHN renal)	GI50 (HCT-15 colon)	GI50 (HOP-92 NSCLC)	TGI (HOP-92 NSCLC)	GI50 (MCF7 breast)	GI50 (MDA-MB-435)	GI50 (OVCAR-3 ovarian)	GI50 (SF-295 CNS)	GI50 (SK-OV-3 ovarian)
O=C1O/C(=C\C=C\CO)C=C1/C=C/CO	69.5 µM	50.9 µM	30.8 µM	> 100 µM	> 100 µM	> 100 µM	59.9 µM	48.8 µM	> 100 µM	> 100 µM									
CCCCCCCCc1ccc(CCC(N)(CO)CO)cc1	2.97 µM		3.42 µM		3.07 µM	3.45 µM		3.48 µM	3.93 µM	3.09 µM	1.61 µM	1.68 µM	1.39 µM	3.53 µM	1.67 µM	1.82 µM	1.94 µM	1.98 µM	1.61 µM
N=C(N)SCCN1CCCCC1	> 100 µM	64.9 µM	> 100 µM	48.4 µM	34.3 µM	52.7 µM	> 100 µM	43.9 µM	> 100 µM	> 100 µM				> 100 µM					
NC(=S)N/N=C1\CC(c2ccccc2)Nc2ccccc21 (centres undefined)	> 100 µM		> 100 µM	> 100 µM				> 100 µM	> 100 µM	> 100 µM				57.5 µM					
C[N+]1(c2ccccc2)C=C(c2ccccc2)SC1=S (centres undefined)	> 100 µM	> 100 µM	> 100 µM	> 100 µM	> 100 µM	> 100 µM		> 100 µM	> 100 µM										
CC1(Cc2cc3c(cc2C2(c4ccc([N+](=O)[O-])cc4)OCCO2)OCO3)OCCO1	> 100 µM	98.9 µM	> 100 µM	> 100 µM	> 100 µM	> 100 µM	> 100 µM	> 100 µM	> 100 µM	> 100 µM									
Cc1ncc(COP(=O)(O)O)c(C)c1O	> 100 µM	> 100 µM	> 100 µM	> 100 µM		> 100 µM	> 100 µM	> 100 µM	> 100 µM					> 100 µM					
CCOc1ccc(N=Nc2ccc(-c3ccc(N=Nc4c(O)ccc5cc(S(=O)(=O)O)cc(S(=O)(=O)O)c45)cc3)cc2)cc1	> 100 µM	> 100 µM	> 100 µM		> 100 µM	> 100 µM		> 100 µM	> 100 µM	> 100 µM				> 100 µM					
Cc1ccccc1C1CC(=O)CC(c2ccccc2C)C12C(=O)NC(=S)NC2=O (centres undefined)	38.6 µM		56.6 µM	35.8 µM	> 100 µM	62.4 µM	> 100 µM	82.8 µM	> 100 µM	> 100 µM				> 100 µM					
CC(=O)[C@]12OC(=O)C3=C1[C@H](CC[C@@H]3C)[C@@H](C)C[C@H]2C=C(C)C	15.3 µM		15.5 µM	15.2 µM	17.2 µM	16 µM	16.9 µM	14 µM	12.8 µM	21.3 µM				7.43 µM					
Cc1cccc(/C=C2/C(=O)Nc3ccccc32)n1	> 82.1 µM	68.6 µM	> 68.9 µM	> 62.6 µM	30.3 µM	60.9 µM		39.3 µM	54.4 µM	52 µM				31.3 µM					
O=C(/C=C/c1ccc(O)cc1)c1cc(-c2cc(CCC(=O)c3ccc(O)cc3O)ccc2O)c(O)cc1O	> 50 µM	> 50 µM	> 50 µM	> 50 µM	> 50 µM	> 50 µM	> 50 µM	> 50 µM	> 50 µM	42.6 µM				> 50 µM					
C=C(C[C@@H](O)[C@H](C)NC(=O)OCc1ccccc1)C(=O)OC(C)(C)C	> 100 µM	> 100 µM	> 100 µM	> 100 µM	> 100 µM	> 100 µM	> 100 µM	> 100 µM	> 100 µM	> 100 µM				> 100 µM					
CC(=O)c1c(C)cc2cccc(OC3OC(CO)C(O)C(O)C3O)c2c1O (centres undefined) (tested in a mixture with another compound)	> 100 µM	> 100 µM	> 100 µM	> 100 µM	> 100 µM	> 100 µM	> 100 µM	> 100 µM	> 100 µM	> 100 µM				> 100 µM					
CC(=O)Oc1cc(/C=C/c2ccc(O)cc2)cc(OC(C)=O)c1	> 100 µM		> 100 µM		> 100 µM	> 100 µM		> 100 µM	> 100 µM	> 100 µM				> 100 µM					
CC(=O)C(N=NC1CCC(S(=O)(=O)NB2N=CS2)CC1)C(=O)Nc1ccccc1C (centres undefined)	24.6 µM		22.3 µM					27 µM	35.1 µM	50.6 µM				34.3 µM					
O=S(=O)([O-])[O-].[Fe+2].[OH2+]c1c(Cl)cc(Cl)cc1/C=N/Nc1ccccn1	1.12 µM		3.48 µM	2.79 µM				0.578 µM	3.45 µM	3.7 µM				0.899 µM					1.86 µM
Nc1ccc(S(=O)(=O)NCCS(=O)(=O)O)cc1	> 100 µM	> 100 µM	> 100 µM	> 100 µM		> 100 µM	> 100 µM	> 100 µM	> 100 µM					> 100 µM					
